According to patent publication US20130144250A1, “IMPLANTABLE DRUG DELIVERY COMPOSITIONS AND METHODS OF TREATMENT THEREOF” (Endo Pharmaceuticals Solutions Inc., priority 2011, published 2013):
In brackets after ≈: the same amount, converted by molar mass. Where a name gives a salt, the structure may show the parent alone. Read-outs that look alike come from different tables or passages of the source.

Assays:
[1] = In vitro elution of the API from implants in an elution bath of 0.9% saline at 37° C., exchanges analyzed by HPLC; format: physicochemical
Procedure: The testing method set forth in the examples to determine the elution rates for the respective actives included placing the implants in an elution bath consisting of 50 mL 0.9% saline at 37° C. Weekly exchanges of the elution media were analyzed by HPLC for the durations given.
A drug implant was manufactured as described in Example 1 using an aliphatic, polyether-based polyurethane (TECOFLEX® EG-93A polyurethane) as the tubing material. […] Nine pellets of the anastrozole blend were then placed inside the tubing. A total of about 370 mg anastrozole per implant was used. The implants were sterilized by gamma irradiation and placed in an elution bath of 0.9% saline (50 mL) at 37° C. Regular exchanges of the elution media were analyzed by HPLC for over 400 days.
Implants D and E were then tested for in vitro elution, as described in Example 2.
The implants were sterilized by gamma irradiation and placed in an elution bath of 0.9% saline (200 mL) at 37° C.
Drug containing pellets were manufactured as described in Example 1, and the polymeric sorption enhancer croscarmellose sodium was added to the drug blend. Nine pellets of a drug blend with various concentrations of anastrozole and croscarmellose, with the remainder being 2% stearic acid as lubricant, were placed into a polyurethane tubing (TECOFLEX® EG-93A). The implants were sterilized by gamma irradiation and placed in an elution batch consisting of 50 mL saline at 37° C. Weekly exchanges of the elution media were analyzed by HPLC for 13 weeks.
Drug containing pellets were manufactured as described in Example 1, and the polymeric sorption enhancer croscarmellose sodium was added to the drug blend. […] The implants were sterilized by gamma irradiation and placed in an elution batch consisting of 500 mL saline at 37° C. Weekly exchanges of the elution media were analyzed by HPLC for 11 weeks.
A total of about 250 mg fingolimod were loaded into the implants with 10% croscarmellose and 2% stearic acid. The implants were sterilized by gamma irradiation and placed in an elution batch consisting of 800 mL 0.9% saline at 37° C. Weekly exchanges of the elution media were analyzed by HPLC for up to 30 weeks.
The drug implants were manufactured as described in Example 26 using TECOFLEX® EG-80A, TECOFLEX® EG-85A, TECOFLEX® EG-93A, TECOFLEX® EG-100A, TECOFLEX® EG-65D, or TECOFLEX® EG-68D polyurethanes as the tubing materials and varenicline tartrate as the API. […] A total of about 350 mg varenicline tartrate were loaded into each implant with 10% croscarmellose and 2% stearic acid. The implants were sterilized by gamma irradiation and placed in an elution batch consisting of 200 mL 0.9% saline at 37° C. Weekly exchanges of the elution media were analyzed by HPLC for up to 11 weeks.
The drug implant was manufactured as described in Example 26 using TECOFLEX® EG-93A polyurethane as the tubing material and varenicline free base as the API. […] A total of about is 250 mg varenicline free base were loaded into the implant with 10% croscarmellose and 2% stearic acid. The implant was sterilized by gamma irradiation and placed in an elution batch consisting of 100 mL 0.9% saline at 37° C.

estrogen formation [2] = conditions: indirect effect model with sigmoidal inhibitory drug effect
[3] = cited from earlier work
estrogen formation [4] = assay: animal or person; conditions: Homo sapiens, read-out: EC50 (concentration achieving half-maximal response)
[5] = human, in vivo, po

With `CC(C)(C#N)c1cc(Cn2cncn2)cc(C(C)(C)C#N)c1` [Anastrozole, anastrozole] the “duration of pseudo-zero order elution rate” value ([1]; FIG. 4, aliphatic polyether-based urethane implant (Example 2)) was “over 400 days”, the “duration of pseudo-zero order elution” value ([1]; FIG. 8, polyether-based polyurethane excipient) was “over one year” and the “elution profile, 9 pellets versus 7 pellets” value ([1]; FIG. 10) was “higher elution profile”. The “duration of pseudo-zero order elution rate” value ([1]; FIG. 13, 10% sorption enhancer (croscarmellose)) was “over 80 days”, the “duration of pseudo-zero order elution rate” value ([1]; FIG. 14, 10% sodium carboxymethyl starch) was “over 80 days” and the “duration of pseudo-zero order elution rate” value ([1]; FIG. 14, 10% sodium starch glycolate) was “over 80 days”. The “drug release rate on increasing sodium polyacrylate from 10% to 14% of the drug blend” value ([1]; TECOFLEX EG-93A) was “increased the drug release rate”, the elution rate ([1]; TECOFLEX EG-93A implant, 2% croscarmellose, 50 mL saline) was “about 250 μg/day” and the elution rate ([1]; TECOFLEX EG-93A implant, 10% croscarmellose, 50 mL saline) was “about 850 μg/day”. For the same compound, the “release with increased load into the implant” value ([1]; TECOFLEX EG-93A, about 125 mg to about 540 mg per implant, over 70 days) was “linear release”, the “drug release compared to no added sorption enhancer” value ([1]; TECOFLEX EG-93A, even the smallest percentage of croscarmellose sodium) was “increased the drug release” and the “drug release compared to no added sorption enhancer” value ([1]; TECOFLEX EG-93A, sodium polyacrylate) was “increased the drug release”. For the same compound, the “Hill coefficient of the concentration response curve on estrogen” value (estrogen formation [2]) was 0.455, the Bioavailability ([3]; oral dosage) was 80-85% and the EC50 (estrogen formation [4]) was 0.000565 ng/mL (≈ 0.00193 nM).
For `O=C1CCc2ccc(OCCCCN3CCN(c4cccc(Cl)c4Cl)CC3)cc2N1` [Aripiprazole, aripiprazole], the Bioavailability ([3]; oral dosage) is given as 85%.
In the case of `C[C@]12C=CC(=O)N[C@@H]1CC[C@@H]1[C@@H]2CC[C@]2(C)[C@@H](C(=O)Nc3cc(C(F)(F)F)ccc3C(F)(F)F)CC[C@@H]12` [Dutasteride, dutasteride], the Bioavailability ([3]; oral dosage) is listed as ~60%.
For `Nc1nc2ncc(CNc3ccc(C(=O)N[C@@H](CCC(=O)O)C(=O)O)cc3)nc2c(=O)[nH]1` [Folic acid, folic acid], the Bioavailability ([3]; oral dosage) is listed as 60%.
In the case of `N#Cc1ccc(C(c2ccc(C#N)cc2)n2cncn2)cc1` [Letrozole, letrozole], the Bioavailability ([3]; oral dosage) is listed as 99%.
In the case of `CCN(CC)CC#CCOC(=O)C(O)(c1ccccc1)C1CCCCC1` (stereo not drawn) [Oxybutynin HCl, oxybutynin hydrochloride], the “release rates from implants” value ([1]; TECOFLEX EG-80A and EG-85A implants, oxybutynin HCl) is reported as “suitable release rates” and the elution from implants ([1]; TECOFLEX EG-93A, TECOPHILIC HP-60D-05 and HP-60D-10 implants, oxybutynin HCl) is reported as “failed to elute”.
In the case of `Cc1nc2n(c(=O)c1CCN1CCC(c3noc4cc(F)ccc34)CC1)CCCC2O` (stereo not drawn) [Paliperidone, paliperidone], the Bioavailability ([3]; oral dosage) is given as 28%.
In the case of `Cc1nc2n(c(=O)c1CCN1CCC(c3noc4cc(F)ccc34)CC1)CCCC2` [Risperidone, 4-[2-[4-(6-fluorobenzo[d]isoxazol-3-yl)-1-piperidyl]ethyl]-3-methyl-2,6-diazabicyclo[4.4.0]deca-1,3-dien-5-one], the elution rate ([1]; TECOFLEX EG-80A implant, 2% croscarmellose, 500 mL saline, week 2) is reported as “about 1,450 μg/day”, the elution rate ([1]; TECOFLEX EG-80A implant, 2% croscarmellose, 500 mL saline, week 11) is reported as “about 850 μg/day” and the elution rate ([1]; TECOFLEX EG-80A implant, 12% croscarmellose, 500 mL saline, week 2) is reported as “about 1,800 μg/day”. For the same compound, the elution rate ([1]; TECOFLEX EG-80A implant, 12% croscarmellose, 500 mL saline, week 11) was “about 1,400 μg/day”, the “daily elution rates with a sorption enhancer in comparison to an implant without” value ([1]; TECOFLEX EG-80A, 10% croscarmellose vs none, 200 mL saline) was “significantly higher” and the “drug release compared to no added sorption enhancer” value ([1]; TECOFLEX EG-80A, 10% polyethylene oxide, sodium polyacrylate or chondroitin sulfate) was “increased the drug release”. The “drug release compared to no added sorption enhancer” value ([1]; TECOFLEX EG-80A, 10% sodium carboxymethyl cellulose) was “increased the drug release”, the “drug release compared to no added sorption enhancer” value ([1]; TECOFLEX EG-80A, even the smallest percentage of croscarmellose sodium) was “increased the drug release” and the “time of peak active moiety plasma concentration following administration” value [5] was ≤ 3 h.
In the case of `CCN(C)C(=O)Oc1cccc([C@H](C)N(C)C)c1` [Rivastigmine Tartrate, rivastigmine tartrate], the Bioavailability ([3]; oral dosage) is listed as 35%.
For `CCCN(CCc1cccs1)[C@H]1CCc2c(O)cccc2C1` [Rotigotine, rotigotine], the Bioavailability ([3]; transdermal) is given as 35%.
In the case of `C#CCN(C)[C@H](C)Cc1ccccc1` [Selegiline HCl, selegiline HCl], the Bioavailability ([3]; buccal 1.25 mg/day) is given as 90%.
For `Cc1ccc(O)c([C@H](CCN(C(C)C)C(C)C)c2ccccc2)c1` [Tolterodine Tartrate, tolterodine tartrate], the Bioavailability ([3]; oral dosage) is given as ~75%.
In the case of `CCN(CC)CC#CCOC(=O)C(O)(c1ccccc1)C1CCCCC1` (stereo not drawn) [oxybutynin free base, oxybutynin], the elution from implants ([1]; TECOFLEX EG-80A and EG-85A implants, oxybutynin free base) is given as “essentially streamed out”, the “release rates from implants” value ([1]; TECOFLEX EG-93A, TECOPHILIC HP-60D-05 and HP-60D-10 implants, oxybutynin free base) is given as “suitable and controllable release rates” and the Bioavailability ([3]; oral dosage) is given as ~6%.
For `c1cnc2cc3c(cc2n1)[C@@H]1CNC[C@H]3C1` [varenicline free base, varenicline], the release rate ([1]; TECOFLEX EG-93A implant, 100 mL saline) was “about 1,750 μg/day” and the “elution rates in vitro in comparison to the salt form” value ([1]; free base vs HCl or tartrate salt) was “higher and more stable”.
With varenicline tartrate the “drug release from implants” value ([1]; TECOFLEX EG-80A and EG-85A implants, after a long incubation phase) was “released but without any control over the release” and the “drug release from implants” value ([1]; TECOFLEX EG-93A, EG-100A, EG-65D and EG-68D implants, 200 mL saline) was “no drug was released”.
